Drawing on BindingDB's records for doi:10.1021/bi00839a042 (Michigan State University, 1969), this text covers Ki for nine compounds.

The experiment has as its target T1, Complement C1s subcomponent (Homo sapiens, UniProt P09871).
T1 sequence (P09871 whole entry): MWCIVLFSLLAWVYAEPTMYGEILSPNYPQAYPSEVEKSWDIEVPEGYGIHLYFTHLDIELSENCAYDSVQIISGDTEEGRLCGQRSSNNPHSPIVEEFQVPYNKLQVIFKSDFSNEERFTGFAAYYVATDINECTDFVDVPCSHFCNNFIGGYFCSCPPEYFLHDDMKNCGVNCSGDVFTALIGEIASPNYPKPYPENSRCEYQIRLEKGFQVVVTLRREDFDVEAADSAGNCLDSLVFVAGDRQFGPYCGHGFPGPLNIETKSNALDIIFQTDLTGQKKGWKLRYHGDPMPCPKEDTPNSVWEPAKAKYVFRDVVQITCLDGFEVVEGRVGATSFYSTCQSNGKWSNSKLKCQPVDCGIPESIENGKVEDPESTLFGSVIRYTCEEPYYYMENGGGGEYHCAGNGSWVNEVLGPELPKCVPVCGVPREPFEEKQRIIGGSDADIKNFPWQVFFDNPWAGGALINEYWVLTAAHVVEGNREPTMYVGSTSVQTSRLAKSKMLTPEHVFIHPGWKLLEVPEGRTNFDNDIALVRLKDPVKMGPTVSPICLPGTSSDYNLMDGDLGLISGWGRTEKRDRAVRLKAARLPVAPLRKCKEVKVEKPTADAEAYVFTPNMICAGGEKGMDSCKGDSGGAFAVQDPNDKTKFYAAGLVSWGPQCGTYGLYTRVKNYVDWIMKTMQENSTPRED
Kind of experiment: Enzymatic Assay. The following applies: pH 8.05; 25.50 °C. From the text:
All readings were made in a Hitachi-Coleman ultraviolet-visible 101 spectrophotometer.
As usually defined, the Ki is a measure of affinity in units of concentration, obtained from inhibition or displacement. Low values mean a stronger hold on the target, high ones a looser hold on the target. `O=C(NC(Cc1ccc(O)cc1)C(=O)O)c1ccccc1` [N-z-L-Tyr]: the Ki was found to be 370 µM. In the case of `N=C(N)NCC(=O)O` [Guanidinacetic] it was 4370 µM; in that of `CC(C)(C)CNC(=N)N` [2,2'-Dimethyl-1-guanidinopropane], 13400 µM; in that of `O=C(CCl)NC(Cc1ccc(O)cc1)C(=O)O` [N-Chloroacetyl-L-tyrosine], 1120 µM. `N=C(N)c1ccc([N+](=O)[O-])cc1` [p-Nitrobenzamidine] showed a Ki of 92500 µM.

`N=C(N)NN` [CAS_2146] showed a Ki of 18100 µM.

On to `Cc1nc(NC(=N)N)nc2ccccc12` [2-Guanidino-4-methylguinazoline], for which the affinity corresponds to a Ki of 76.5 µM. As for `N=C(N)c1ccccc1` [Benzamidine], the Ki amounted to 603 µM. In the case of `N=C(N)Nc1ccccc1` [Alpha-Phenylguanidine] it was 548 µM.
